This is an account of results in patent US20220227781A1, “PYRIMIDINE DERIVATIVE INHIBITING GROWTH OF CANCER CELL AND MEDICINAL USE THEREOF” (ONCOBIX CO., LTD., priority 2019, published 2022).

The target of the test is EXON 20 Insertion (NPG) Ba/F3 Cell (Homo sapiens, UniProt P00533, INS772GNP, cells depend on it). The test is described as follows: Measurement of inhibitory effect on cancer cell growth (MTT assay). The settings on record: read-out: Measured value of inhibitory effect on cancer cell growth (IC50), EXON 20 Insertion (NPG) Ba/F3 Cell, Ba/F3 cells expressing EGFR with NPG inserted at D770_N771, 72 hours treatment, read at 595 nm.
Sequence of EXON 20 Insertion (NPG) Ba/F3 Cell (P00533 with tags, fused parts or gaps INS772GNP): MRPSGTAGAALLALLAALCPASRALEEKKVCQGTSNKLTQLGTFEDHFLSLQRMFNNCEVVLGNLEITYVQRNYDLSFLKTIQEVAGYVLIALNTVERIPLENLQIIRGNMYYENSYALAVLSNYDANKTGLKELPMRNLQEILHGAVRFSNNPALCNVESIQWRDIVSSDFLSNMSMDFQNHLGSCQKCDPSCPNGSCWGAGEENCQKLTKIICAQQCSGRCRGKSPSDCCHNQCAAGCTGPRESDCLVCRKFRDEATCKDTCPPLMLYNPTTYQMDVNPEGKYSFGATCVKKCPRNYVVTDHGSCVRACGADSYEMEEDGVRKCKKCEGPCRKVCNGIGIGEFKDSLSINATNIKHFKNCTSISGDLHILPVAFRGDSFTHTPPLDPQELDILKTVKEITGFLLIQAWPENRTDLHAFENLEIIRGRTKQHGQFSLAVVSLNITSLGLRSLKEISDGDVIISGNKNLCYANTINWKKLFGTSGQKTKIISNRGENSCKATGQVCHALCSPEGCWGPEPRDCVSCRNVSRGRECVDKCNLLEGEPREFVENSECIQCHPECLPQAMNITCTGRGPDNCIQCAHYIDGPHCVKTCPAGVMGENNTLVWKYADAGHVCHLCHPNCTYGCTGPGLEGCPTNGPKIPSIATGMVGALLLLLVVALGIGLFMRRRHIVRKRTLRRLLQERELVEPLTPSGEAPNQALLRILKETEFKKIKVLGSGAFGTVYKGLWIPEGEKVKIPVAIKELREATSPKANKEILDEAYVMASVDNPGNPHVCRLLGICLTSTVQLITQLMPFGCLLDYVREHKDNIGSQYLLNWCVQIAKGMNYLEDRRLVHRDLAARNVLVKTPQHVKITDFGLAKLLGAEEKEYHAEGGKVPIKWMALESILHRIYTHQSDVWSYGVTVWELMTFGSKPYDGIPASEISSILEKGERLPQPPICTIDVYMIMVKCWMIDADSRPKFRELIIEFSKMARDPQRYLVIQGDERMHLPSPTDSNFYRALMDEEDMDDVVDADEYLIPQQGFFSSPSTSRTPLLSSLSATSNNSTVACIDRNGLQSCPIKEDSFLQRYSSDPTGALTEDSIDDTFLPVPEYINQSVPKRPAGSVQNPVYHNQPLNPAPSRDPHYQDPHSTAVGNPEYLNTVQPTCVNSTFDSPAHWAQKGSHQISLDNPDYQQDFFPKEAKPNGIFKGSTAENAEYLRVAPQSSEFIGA

Each structure is given as a SMILES string. A value given as a limit tells only on which side of the number the result lay.

Description: First, the present invention used a vector in which NPG of 3 amino acids were added to D770_N771 site of the most frequent alterations, and used the Ba/F3 cell line for expression of these genes.
Pre-constructed stable cells of 1×10^4 cells were placed in a 96 well plate and incubated overnight, and then the compounds of Examples were treated at a dose dependent manner After 72 hours, MTT reagent was added, and after 3 hours, stop buffer (10% SDS) was added.

As to `COc1cc(N2CCC(N3CCN(C)CC3)CC2)c(NC(C)C)cc1Nc1nc(Nc2ccccc2N(C)S(C)(=O)=O)c2sccc2n1` [Example 4, N-(2-((2-((5-(isopropylamino)-2-methoxy-4-(4-(4-methylpiperazin-1-yl)piperidin-1-yl)phenyl)amino)thieno[3,2-d]pyrimidin-4-yl)amino)phenyl)-N-methylmethanesulfonamide], the GI50 fell in the range of 300 to 1000 nM.
Regarding `C=CC(=O)Nc1cc(Nc2ncc(Cl)c(Nc3ccc4nccnc4c3N(C)S(C)(=O)=O)n2)c(OC)cc1N(C)CCN(C)C` [Example 11, N-(5-((5-chloro-4-((5-(N-methylmethylsulfonamido)quinoxalin-6-yl)amino)pyrimidin-2-yl)amino)-2-((2-(dimethylamino)ethyl)(methyl)amino)-4-methoxyphenyl)acrylamide], the GI50 was below 100 nM.
As to `COc1cc(N(C)CCN(C)C)c(NC(C)C)cc1Nc1ncc(Cl)c(Nc2ccccc2N(C)S(C)(=O)=O)n1` [Example 1, N-(2-((5-chloro-2-((4-((2-(dimethylamino)ethyl)(methyl)amino)-5-(isopropylamino)-2-methoxyphenyl)amino)pyrimidin-4-yl)amino)phenyl)-N-methylmethanesulfonamide], the GI50 was in the range of 300 to 1000 nM.
The same measure for `C=CC(=O)Nc1cc(Nc2ncc(C(=O)OC3CC3)c(Nc3ccccc3N(C)S(C)(=O)=O)n2)c(OC)cc1N(C)CCN(C)C` [Example 16, CYCLOPROPYL 2-((5-acrylamido-4-((2-(dimethylamino)ethyl)(methyl)amino)-2-methoxyphenyl)amino)-4-((2-(N-methylmethylsulfonamido)phenyl)amino)pyrimidine-5-carboxylate]: below 100 nM.
The same measure for `COc1cc(N2CCC(N(C)C)CC2)c(NC(C)C)cc1Nc1ncc(Cl)c(Nc2ccccc2N(C)S(C)(=O)=O)n1` [Example 6, N-(2-((5-chloro-2-((4-(4-(dimethylamino)piperidin-1-yl)-5-(isopropylamino)-2-methoxyphenyl)amino)pyrimidin-4-yl)amino)phenyl)-N-methylmethanesulfonamide]: 300 to 1000 nM.
For the molecule `COc1cc(N(C)CCN(C)C)c(NC(C)C)cc1Nc1nc(Nc2ccccc2N(C)S(C)(=O)=O)c2sccc2n1` [Example 2, N-(2-((2-((4-((2-(dimethylamino)ethyl)(methyl)amino)-5-(isopropylamino)-2-methoxyphenyl)amino)thieno[3,2-d]pyrimidin-4-yl)amino)phenyl)-N-methylmethanesulfonamide], the GI50 lay within 300 to 1000 nM.
For `C=CC(=O)Nc1cc(Nc2ncc(Cl)c(Nc3ccccc3NS(C)(=O)=O)n2)c(OC)cc1N(C)CCN(C)C` [Example 10, N-(5-((5-chloro-4-((2-(methylsulfonamido)phenyl)amino)pyrimidin-2-yl)amino)-2-((2-(dimethylamino)ethyl)(methyl)amino)-4-methoxyphenyl)acrylamide], the GI50 was below 100 nM.
Regarding `C=CC(=O)Nc1cc(Nc2ncc(Cl)c(Nc3ccc4nccnc4c3NS(C)(=O)=O)n2)c(OC)cc1N(C)CCN(C)C` [Example 12, N-(5-((5-chloro-4-((5-(methylsulfonamido)quinoxalin-6-yl)amino)pyrimidin-2-yl)amino)-2-((2-(dimethylamino)ethyl)(methyl)amino)-4-methoxyphenyl)acrylamide], the GI50 is below 100 nM.
Regarding `COc1cc(N2CCC(N3CCN(C)CC3)CC2)c(NC(C)C)cc1Nc1ncc(Cl)c(Nc2ccccc2N(C)S(C)(=O)=O)n1` [Example 5, N-(2-((5-chloro-2-((5-(isopropylamino)-2-methoxy-4-(4-(4-methylpiperazin-1-yl)piperidin-1-yl)phenyl)amino)pyrimidin-4-yl)amino)phenyl)-N-methylmethanesulfonamide], the GI50 was 300 to 1000 nM.
The same measure for `C=CC(=O)Nc1cc(Nc2nc(Nc3ccccc3N(C)S(C)(=O)=O)c3sccc3n2)c(OC)cc1N1CCC(N2CCN(C)CC2)CC1` [Example 7, N-(4-methoxy-5-((4-((2-(N-methylmethylsulfonamido)phenyl)amino)thieno[3,2-d]pyrimidin-2-yl)amino)-2-(4-(4-methylpiperazin-1-yl)piperidin-1-yl)phenyl)acrylamide]: 100 to 300 nM.
With `C=CC(=O)Nc1cc(Nc2ncc(C(=O)OC(C)C)c(Nc3ccccc3N(C)S(C)(=O)=O)n2)c(OC)cc1N(C)CCN(C)C` [Example 15, ISOPROPYL 2-((5-acrylamido-4-((2-(dimethylamino)ethyl)(methyl)amino)-2-methoxyphenyl)amino)-4-((2-(N-methylmethylsulfonamido)phenyl)amino)pyrimidine-5-carboxylate], the GI50 is below 100 nM.
For `C=CC(=O)Nc1cc(Nc2cc(Nc3ccccc3N(C)S(C)(=O)=O)ncn2)c(OC)cc1N(C)CCN(C)C` [Example 17, N-(2-((2-(dimethylamino)ethyl)(methyl)amino)-4-methoxy-5-((6-((2-(N-methylmethylsulfon amido)phenyl)amino)pyrimidin-4-yl)amino)phenyl)acrylamide], the GI50 is below 100 nM.
`COc1cc(N2CCC(N(C)C)CC2)c(NC(C)C)cc1Nc1nc(Nc2ccccc2N(C)S(C)(=O)=O)c2sccc2n1` [Example 3, N-(2-((2-((4-(4-(dimethylamino)piperidin-1-yl)-5-(isopropylamino)-2-methoxyphenyl)amino)thieno[3,2-d]pyrimidin-4-yl)amino)phenyl)-N-methylmethanesulfonamide]: the GI50 fell in the range of 300 to 1000 nM.
As for `C=CC(=O)Nc1cc(Nc2ncc(Cl)c(Nc3cc(F)ccc3NS(C)(=O)=O)n2)c(OC)cc1N(C)CCN(C)C` [Example 14, N-(5-((5-chloro-4-((5-fluoro-2-(methylsulfonamido)phenyl)amino)pyrimidin-2-yl)amino)-2-((2-(dimethylamino)ethyl)(methyl)amino)-4-methoxyphenyl)acrylamide], the figure is below 100 nM.
As for `C=CC(=O)Nc1cc(Nc2nc(Nc3ccccc3N(C)S(C)(=O)=O)c3sccc3n2)c(OC)cc1N(C)CCN(C)C` [Example 8, N-(2-((2-(dimethylamino)ethyl)(methyl)amino)-4-methoxy-5-((4-((2-(N-methylmethylsulfon amido)phenyl)amino)thieno[3,2-d]pyrimidin-2-yl)amino)phenyl)acrylamide], the figure is 100 to 300 nM; as for `C=CC(=O)Nc1cc(Nc2ncc(Cl)c(Nc3cc(F)ccc3N(C)S(C)(=O)=O)n2)c(OC)cc1N(C)CCN(C)C` [Example 13, N-(5-((5-chloro-4-((5-fluoro-2-(N-methylmethylsulfonamido)phenyl)amino)pyrimidin-2-yl)amino)-2-((2-(dimethylamino)ethyl)(methyl)amino)-4-methoxyphenyl)acrylamide], below 100 nM.
As to `C=CC(=O)Nc1cc(Nc2nc(Nc3ccccc3N(C)S(C)(=O)=O)c3sccc3n2)c(OC)cc1N1CCC(N(C)C)CC1` [Example 9, N-(2-(4-(dimethylamino)piperidin-1-yl)-4-methoxy-5-((4-((2-(N-methylmethylsulfonamido)phenyl)amino)thieno[3,2-d]pyrimidin-2-yl)amino)phenyl)acrylamide], the GI50 is 100 to 300 nM.
